Reference: patent publication US11254670B2 (NUVATION BIO INC., priority 2019, dated 2022)

Key:
[1] = target: human recombinant adenosine A2A receptor (Homo sapiens (Human), UniProt P29274); assay: cAMP assay (Assay 2), HEK-293 cells expressing A2A receptor; format: cell-based; details: HEK-293 cells expressing human recombinant adenosine A2A receptor
Procedure: (§1) The functional activity of compounds was tested using Assay 2, below, to detect the presence of cAMP. Assay 1 is an alternative assay for this purpose. Activation of G-protein coupled receptors (such as A2A) results in activation of adenylyl cyclase which converts ATP into cAMP which is used as a downstream signaling molecule. Therefore, molecules which act as GPCR (or specifically A2A receptor) antagonists cause a decrease in intracellular cAMP concentration.
(§2) Assay 2 (Table B2): This assay used HEK-293 cells expressing human recombinant adenosine A2A receptor (or, alternatively, A1 receptor) that were grown prior to the test in media without antibiotic. 100 nL of test articles at 100× of final concentration were transferred to assay plate by Echo. Cells were washed twice with 5 mL of PBS and 10 μL of cells were mixed with 5 mL PBS. After aspirating the PBS and adding 1.5 mL versine, cells were incubated at 37° C. for 2-5 min. After centrifugation, 4 mL of medium was added and adjusted cell density to 5,000 cells/well with Stimulation Buffer. 10 μL of cells were aliquoted to the assay plate, centrifuged at 1000 rpm for 1 minute, and incubated for 60 minutes at room temperature. 5 μL 4× Eu-cAMP tracer solution and 5 μL 4× Ulight™-anti-cAMP solution were added to assay plate, followed by centrifugation and 60-minute incubation at room temperature. Plates were read on EnVision.

[2] = target: adenosine A1 (human) membrane (Homo sapiens (Human), UniProt P30542); assay: A1 adenosine receptor radioligand binding assay ([3H] DPCPX); details: radioligand [3H] DPCPX 1 nM, compound 200 nM
Procedure: A second A1 adenosine receptor radioligand binding assay protocol was used. The protocol used adenosine A1 (human) membrane (PerkinElmer ES-010-M400UA) at a concentration of 2.5 μg/well/100 μl and the radioligand [3H] DPCPX (Cat No. PerkinElmer-NET974250UC) at a final concentration of 1 nM. Testing compounds were tested at a final concentration of 200 nM. CGS-15943, the reference compound, was tested in an 8-point 4-fold serial dilution, starting at a top concentration of 1 μM. 1 μl of compounds/high control/low control was transferred to the assay plate according to a plate map, followed by 100 μl of membrane stocks and 100 μl of radioligand, in assay buffer (25 mM HEPES, 5 mM MgCl2, 1 mM CaCl2, 100 mM NaCl, pH 7.4). The plate was sealed and incubated at RT for 1 hour. Unifilter-96 GF/C filter plates (Perkin Elmer Cat #6005174) were soaked with 50 μl of 0.3% PEI per well for at least 0.5 hour at room temperature. When the binding assays were completed, the reaction mixtures were filtered through GF/C plates using Perkin Elmer Filtermate Harvester, and each plate washed 4 times with cold wash buffer (25 mM HEPES, 5 mM MgCl2, 1 mM CaCl2, 100 mM NaCl, pH 7.4). The filter plates were dried for 1 hour at 50 degrees. After drying, the bottom of the filter plate wells was sealed, 50 μl of Perkin Elmer Microscint 20 cocktail was added, and the top of the filter plate was sealed. ^3H trapped on the filter was counted using Perkin Elmer MicroBeta2 Reader. The data were analyzed with GraphPad Prism 5 to obtain binding IC50 values for the reference compound. The “Inhibition [% Control]” was calculated using the equation: % Inh=(1−Background subtracted Assay value/Background subtracted HC value)*100, where HC is high control.

[3] = target: adenosine A2a (human) membrane (Homo sapiens (Human), UniProt P29274); assay: A2A adenosine receptor radioligand binding assay ([3H] CGS-21680); details: radioligand [3H] CGS-21680 6 nM
Procedure: A second A2A adenosine receptor radioligand binding assay protocol was used. The protocol used adenosine A2a (human) membrane (PerkinElmer RBHA2AM400UA) at a concentration of 5 μg/well/100 μl and the radioligand [3H] CGS-21680 (Cat No. PerkinElmer-NET1021250UC) at a final concentration of 6 nM. Testing compounds were diluted with DMSO to make 8-point 4-fold serial dilution, starting at 0.2 mM. CGS-15943 was the reference compound. 1 μl of compounds/high control/low control was transferred to the assay plate according to a plate map, followed by 100 μl of membrane stocks and 100 μl of radioligand, in assay buffer (50 mM Tris-HCl, 10 mM MgCl2, 1 mM EDTA, pH 7.4). The plate was sealed and incubated at RT for 2 hours. Unifilter-96 GF/C filter plates (Perkin Elmer Cat #6005174) were soaked with 50 μl of 0.3% PEI per well for at least 0.5 hour at room temperature. When the binding assays were completed, the reaction mixtures were filtered through GF/C plates using Perkin Elmer Filtermate Harvester, and each plate washed 4 times with cold wash buffer (50 mM Tris-HCl, 154 mM NaCl, pH 7.4). The filter plates were dried for 1 hour at 50 degrees. After drying, the bottom of the filter plate wells was sealed, 50 μl of Perkin Elmer Microscint 20 cocktail was added, and the top of the filter plate was sealed. ^3H trapped on the filter was counted using Perkin Elmer MicroBeta2 Reader. The data were analyzed with GraphPad Prism 5 to obtain binding IC50 values. The “Inhibition [% Control]” was calculated using the equation: % Inh=(1−Background subtracted Assay value/Background subtracted HC value)*100, where HC is high control.

[4] = target: human recombinant adenosine A1 receptor (Homo sapiens (Human), UniProt P30542); assay: cAMP assay (Assay 2), HEK-293 cells expressing A1 receptor; format: cell-based
Procedure: as §1, §2

[5] = system: activated human PBMCs; assay: Human T cell activation assay (TNF-α and IFN-γ ELISA); format: cell-based; details: activated human T cells in vitro, NECA 1 μM or 5 μM
Procedure: Human T Cell Activation Assay: Fresh human blood was diluted with the same volume of PBS and the buffy coat containing peripheral blood mononuclear cells (PBMCs) were prepared and resuspended in culture medium at a density of 2×10^6/mL. 2×10^5 PBMCs (in 100 μL) were plated to each well of a 96-well flat bottom plate. 25 μL of 8× final concentration of 10-fold serial diluted or single concentration compounds was added to indicated wells and incubated for 30 mins in 37° C./5% CO2. 25 μL of 8× final concentration of NECA (1 μM or 5 μM) was added to selected wells and incubated for 30 min in 37° C./5% CO2. Beads included in T cell activation/expansion kit (Miltenyi biotec Cat #130-091-441) at a bead-to-cell ratio of 1:6 in 50 μL were added to all wells with the final concentration of DMSO at 0.1% and final volume at 200 μL. 60 μL of supernatant post 24 hr and 48 hr incubation was collected for TNF-α and IFN-γ concentration evaluation using TNF-α ELISA ready-set-go kit (eBioscience, Cat #88-7346-77) and IFN-γ ELISA ready-set-go kit (eBioscience, Cat #88-7316-77), respectively.

Sequence of human recombinant adenosine A2A receptor (P29274 whole entry): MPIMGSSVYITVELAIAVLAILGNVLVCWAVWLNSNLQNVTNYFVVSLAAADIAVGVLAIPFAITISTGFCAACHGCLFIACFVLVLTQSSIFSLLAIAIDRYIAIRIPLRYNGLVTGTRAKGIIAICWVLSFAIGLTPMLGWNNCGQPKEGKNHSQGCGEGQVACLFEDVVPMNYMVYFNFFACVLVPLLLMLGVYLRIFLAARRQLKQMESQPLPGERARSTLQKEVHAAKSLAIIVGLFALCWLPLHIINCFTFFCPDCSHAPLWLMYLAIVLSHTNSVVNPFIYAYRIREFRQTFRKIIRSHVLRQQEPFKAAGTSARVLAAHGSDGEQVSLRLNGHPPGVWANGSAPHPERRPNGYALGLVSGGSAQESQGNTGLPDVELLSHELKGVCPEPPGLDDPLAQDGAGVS
Sequence of adenosine A2a (human) membrane (P29274 whole entry): as above
Sequence of adenosine A1 (human) membrane (P30542 whole entry): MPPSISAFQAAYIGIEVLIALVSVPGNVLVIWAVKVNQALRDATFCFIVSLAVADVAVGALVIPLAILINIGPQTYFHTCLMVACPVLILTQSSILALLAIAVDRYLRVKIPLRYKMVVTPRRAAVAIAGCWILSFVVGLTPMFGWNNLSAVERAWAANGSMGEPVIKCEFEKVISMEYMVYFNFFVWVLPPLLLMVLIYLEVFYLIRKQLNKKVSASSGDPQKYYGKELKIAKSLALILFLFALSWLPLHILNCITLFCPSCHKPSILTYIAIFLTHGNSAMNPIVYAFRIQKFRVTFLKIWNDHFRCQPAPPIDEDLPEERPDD
Sequence of human recombinant adenosine A1 receptor (P30542 whole entry): as above

Question: Which results are given for `N#Cc1cccc(-c2nc3[nH]ccc(=O)c3cc2-c2ccc3ncccc3c2)c1` [Compound 77, 3-(5-oxo-3-(quinolin-6-yl)-5,8-dihydro-1,8-naphthyridin-2-yl)benzonitrile]?
Answer: IC50 [1]: 0.213 µM; inhibition at 0.2 µM [2]: 61%; IC50 [3]: 0.0054 µM

Question: How did the inhibition at 0.2 µM [2] turn out when `N#Cc1cccc(-c2nc3[nH]ccc(=O)c3cc2-c2ccc3[nH]cnc3c2)c1` [Compound 80, 3-(3-(1H-benzo[d]imidazol-5-yl)-5-oxo-5,8-dihydro-1,8-naphthyridin-2-yl)benzonitrile] was run?
Answer: Its inhibition at 0.2 µM is 79%.

Question: And the IC50 [3]?
Answer: The IC50 was 0.017 µM.

Question: How did the IC50 [1] turn out when `Cn1cc(-c2cc3c(=O)cc[nH]c3nc2-c2ccccc2)cc(Cl)c1=O` [Compound 75] was run?
Answer: The IC50 was 0.195 µM.

Question: And the inhibition at 0.2 µM [2]?
Answer: Its inhibition at 0.2 µM is 82%.

Question: Which IC50 [1] does the source give for `CC(C)n1cc(-c2cc3c(=O)cc[nH]c3nc2-c2ccccc2)ccc1=O` [Compound 1, 6-(1-isopropyl-6-oxo-1,6-dihydropyridin-3-yl)-7-phenyl-1,8-naphthyridin-4(1H)-one] here?
Answer: The IC50 was 0.0338 µM.

Question: And the IC50 [4]?
Answer: Its IC50 is 0.0032 µM.

Question: What about the inhibition at 0.2 µM [2] of the same compound?
Answer: Its inhibition at 0.2 µM is 98%.

Question: What about the IC50 [3] of the same compound?
Answer: The IC50 was 0.0026 µM.

Question: And the “reversal of NECA-mediated suppression of TNF-α secretion” value ([5]; FIG. 1)?
Answer: Its value is “reversed NECA-mediated suppression”.

Question: And the “reversal of NECA-mediated suppression of IFN-γ secretion” value ([5]; FIG. 2)?
Answer: The value was “reversed NECA-mediated suppression”.

Question: With `N#Cc1cccc(-c2nc3[nH]ccc(=O)c3cc2-c2ccc3[nH]ncc3c2)c1` [Compound 78, 3-(3-(1H-indazol-5-yl)-5-oxo-5,8-dihydro-1,8-naphthyridin-2-yl)benzonitrile] as the compound, how does the inhibition at 0.2 µM [2] read?
Answer: Its inhibition at 0.2 µM is 81%.

Question: What about the IC50 [3] of the same compound?
Answer: The IC50 was 0.049 µM.

Question: How did the inhibition at 0.2 µM [2] turn out when `N#Cc1cccc(-c2nc3[nH]ccc(=O)c3cc2-c2ccc3ncsc3c2)c1` [Compound 79, 3-(3-(benzo[d]thiazol-6-yl)-5-oxo-5,8-dihydro-1,8-naphthyridin-2-yl)benzonitrile] was run?
Answer: The inhibition at 0.2 µM was 85%.

Question: And the IC50 [3]?
Answer: The IC50 was 0.0095 µM.

Question: Which results are given for `Cc1cc(-c2cc3c(=O)cc[nH]c3nc2-c2cccc(C#N)c2)cc(Cl)n1` [Compound 6, 3-(3-(2-chloro-6-methylpyridin-4-yl)-5-oxo-5,8-dihydro-1,8-naphthyridin-2-yl)benzonitrile]?
Answer: inhibition at 0.2 µM [2]: 26%; IC50 [3]: 0.113 µM

Question: For `Cn1cc(-c2cc3c(=O)cc[nH]c3nc2-c2ccccc2)ccc1=O` [Compound 76], which IC50 [1] is on record?
Answer: The IC50 was 0.156 µM.

Question: And the inhibition at 0.2 µM [2]?
Answer: Its inhibition at 0.2 µM is 92%.

Question: With `CC(C)n1cc(-c2cc3c(=O)cc[nH]c3nc2-c2ccccc2)cc(Cl)c1=O` [Compound 7, 6-(5-chloro-1-isopropyl-6-oxo-1,6-dihydropyridin-3-yl)-7-phenyl-1,8-naphthyridin-4(1H)-one] as the compound, how does the IC50 [1] read?
Answer: Its IC50 is 0.011 µM.

Question: What about the IC50 [4] of the same compound?
Answer: Its IC50 is 0.0058 µM.

Question: And the IC50 [3]?
Answer: The IC50 was 0.0035 µM.

Question: Which inhibition at 0.2 µM [2] does the source give for `Cc1cc(-c2cc3c(=O)cc[nH]c3nc2-c2cccc(C#N)c2C)cc(Cl)n1` [Compound 3, 3-(3-(2-chloro-6-methylpyridin-4-yl)-5-oxo-5,8-dihydro-1,8-naphthyridin-2-yl)-2-methylbenzonitrile] here?
Answer: The inhibition at 0.2 µM was 7%.

Question: And the IC50 [3]?
Answer: Its IC50 is 2.6 µM.

Question: How did the IC50 [1] turn out when `Cc1cc(-c2cc3c(=O)cc[nH]c3nc2-c2ccccc2)cc(Cl)c1NS(C)(=O)=O` [Compound 45, N-(2-chloro-6-methyl-4-(5-oxo-2-phenyl-5,8-dihydro-1,8-naphthyridin-3-yl)phenyl)methanesulfonamide] was run?
Answer: Its IC50 is over 10 µM.

Question: And the inhibition at 0.2 µM [2]?
Answer: The inhibition at 0.2 µM was 34%.

Question: `Cc1c(C#N)cccc1-c1nc2[nH]ccc(=O)c2cc1-c1ccc2ncccc2c1` [Compound 55, 2-methyl-3-(5-oxo-3-(quinolin-6-yl)-5,8-dihydro-1,8-naphthyridin-2-yl)benzonitrile] was tested. Which inhibition at 0.2 µM [2] did it give?
Answer: The inhibition at 0.2 µM was 5%.

Question: What about the IC50 [3] of the same compound?
Answer: The IC50 was 0.179 µM.
